From patent US20110207742A1, “METHOD FOR REDUCTION, STABILIZATION AND PREVENTION OF RUPTURE OF LIPID RICH PLAQUE” (KOWA CO., LTD., priority 2004, published 2011)

Columns and labels:
Format in all cases: in vivo, rabbit
WHHL rabbits [1] = test: Histopathology of Azan-stained aortic arch, image analysis of plaque area occupied by macrophages and collagen; settings: Azan stain, 16 weeks, Pitavastatin 0.5 mg/kg, compound 1 10 mg/kg; for percentage of plaque area occupied by collagen: control 26.5%; for percentage of plaque area occupied by macrophages: control 29.5%
Description: In addition to the evaluation of TC, an aorta excised from each WHHL rabbit was histopathologically examined After the completion of measurement, an aortic arch of each WHHL rabbit was immersion-fixed with 4% paraformaldehyde overnight, and was then embedded in paraffin in the usual manner to prepare a paraffin section. The paraffin section was stained with Azan stain. […] FIGS. 1A to 1D are microscope photographs of Azan-stained aortic arches of the WHHL rabbits, and FIGS. 2A and 2B are graphs which show the analysis results of the images shown in FIGS. 1A to 1D. In this regard, it is to be noted that FIG. 1A is a microscope photograph of a control group to which no drug was administered, FIG. 1B is a microscope photograph of a group to which Pitavastatin was administered in single, FIG. 1C is a microscope photograph of a group to which the compound 1 was administered in single, and FIG. 1D is a microscope photograph of a group to which Pitavastatin and the compound 1 were administered in combination.
(§1) A WHHL rabbit was discovered by Dr. Yoshio Watanabe, a former medical professor at Kobe University in 1973, and was established as a strain. The WHHL rabbit is a model animal which naturally develops hypercholesterolemia and arteriosclerosis. Using such WHHL rabbits, the effect of the drugs on plaque stabilization was examined according to the following method.
(§2) Male homozygous WHHL rabbits (Kitayama Labes, Nagano) were purchased from Oriental Yeast (Tokyo), and WHHL rabbits aged about 4 months were used for experiment. For control, single administration of Pitavastatin, single administration of the compound 1, combined administration of Pitavastatin and the compound 1, 8 WHHL rabbits, 7 WHHL rabbits, 3 WHHL rabbits, and 4 WHHL rabbits were used, respectively.
Pitavastatin was synthesized by Nissan Chemical Industries, Ltd. (Tokyo) and was supplied therefrom. In the case of administration of Pitavastatin, 0.5 mg/kg of Pitavastatin dissolved in 400 mL (which is an average amount of drinking water per rabbit a day) of drinking water was administered to each rabbit. In the case of administration of the compound 1, 10 mg/kg (in terms of free base) of the compound 1 dissolved in 400 mL (which is an average amount of drinking water per rabbit a day) of ion-exchange water was administered to each rabbit. One or both of the drugs were administered for 16 weeks. […]
(§3) The results of TC and the ratio of aortic plaque area were expressed as average±standard error. Significance test between the control group and the drug administration groups were detected using Dunnett's test. Histopathological findings were evaluated in terms of the percentage of plaque area occupied by macrophages and the percentage of plaque area occupied by collagen.

WHHL rabbits [2] = test: Total plasma cholesterol (TC) level in WHHL rabbits after 16 weeks of administration; settings: Pitavastatin 0.5 mg/kg, compound 1 10 mg/kg; for Total plasma cholesterol (mg/dL) Mean ± S.E: male homozygous WHHL rabbits, via drinking water for 16 weeks, control 646.8 ± 27.1
Experimental: For the investigation of the effect of these drugs on total plasma cholesterol (TC), one or both of the compound 1 (10 mg/kg) and Pitavastatin (0.5 mg/kg) were administered to WHHL rabbits via drinking water for 16 weeks to measure the TC of each of the WHHL rabbits.
as §1, §2
(§4) Pitavastatin was synthesized by Nissan Chemical Industries, Ltd. (Tokyo) and was supplied therefrom. In the case of administration of Pitavastatin, 0.5 mg/kg of Pitavastatin dissolved in 400 mL (which is an average amount of drinking water per rabbit a day) of drinking water was administered to each rabbit. In the case of administration of the compound 1, 10 mg/kg (in terms of free base) of the compound 1 dissolved in 400 mL (which is an average amount of drinking water per rabbit a day) of ion-exchange water was administered to each rabbit. One or both of the drugs were administered for 16 weeks.
In the next morning after last administration, each of the rabbits was placed in a restraining box, and the ear of the rabbit was sterilized with an alcohol. Then, about 1 mL of blood was collected from an ear vein with a syringe containing EDTA (final concentration, 0.1%). The collected blood was centrifuged at 4,200×g for 5 minutes to fractionate plasma. TC was measured using cholesterol E-test Wako (by a cholesterol oxidaseΩDAOS method).
as §3

WHHL rabbits [3] = test: Ratio of aortic plaque area in WHHL rabbits; settings: Pitavastatin 0.5 mg/kg, compound 1 10 mg/kg; for Ratio of aortic plaque area (%) Mean ± S.E: plaque area/aortic intimal surface area×100, 16 weeks via drinking water, control 49.6 ± 5.0; for Inhibition ratio (%) of ratio of aortic plaque area: vs control group, 16 weeks via drinking water
Description: as §1, §2, §4
The rabbit was perfused at a perfusion pressure of 120 mmH2O with physiological saline injected from a cardiac apex for about 5 minutes. Further, the rabbit was perfused with 4% paraformaldehyde in the same manner as described above to fix an aorta. The aorta was excised from the rabbit, and fat and connective tissue attached to the aorta were separated. An incision was made along the lesser curvature of the aorta, and then the greater curvature of the aorta was partially incised. The aorta was sandwiched between plastic films in such a manner that the intimal side of the aorta was observed, and a macro image was taken (CAMEDIA E-10, manufactured by Olympus Corporation). Based on the image, plaque area (that is, the area of lipid deposition) and aortic intimal surface area were analyzed by an image analyzer (Win Roof Ver. 5.0, manufactured by MITANI CORPORATION). The ratio of aortic plaque area of each of the rabbits was obtained using the formula:
plaque area/aortic intimal surface area×100
as §3

| Structure (SMILES) | percentage of plaque area occupied by collagen (WHHL rabbits [1]) | percentage of plaque area occupied by macrophages (WHHL rabbits [1]) | Total plasma cholesterol (mg/dL) Mean ± S.E (WHHL rabbits [2]) | Inhibition ratio (%) of total plasma cholesterol (WHHL rabbits [2]; vs control group, WHHL rabbits, 16 weeks via drinking water) | Ratio of aortic plaque area (%) Mean ± S.E (WHHL rabbits [3]) | Inhibition ratio (%) of ratio of aortic plaque area (WHHL rabbits [3]) | effect on TC (in words) (WHHL rabbits [2]; WHHL rabbits, 16 weeks via drinking water) |
| --- | --- | --- | --- | --- | --- | --- | --- |
| O=C(O)C[C@H](O)C[C@H](O)/C=C/c1c(C2CC2)nc2ccccc2c1-c1ccc(F)cc1 [Pitavastatin] | 34.7% | 17.1% | 524.2 ± 35.6 mg/dL | 19% | 47.1 ± 6.6% | 5.0% |  |
| CSc1cc(C)nc(SC)c1NC(=O)CN1CCN(CCSc2nc3ccccc3[nH]2)CC1 [Compound 1, 2-[4-[2-(benzimidazole-2-ylthio)ethyl]piperazin-1-yl]-N-[2,4-bis(methylthio)-6-methyl-3-pyridyl]acetamide] | 44.8% | 14.9% | 648.3 ± 82.2 mg/dL |  | 43.7 ± 4.1% | 11.9% | no effect on TC |
